pIC50: −log10 of the molar value.
Assays:
human ADAMTS4 [1] = molecular target: T1, human ADAMTS4 (Homo sapiens (Human), UniProt O75173); test: hADAMTS-4 TBIS-1 cleavage assay, Protocol 1; type: biochemical; conditions: 60 min at room temperature, read-out: ADAMTS4 potency IC50
Method: (§2) The reaction is initiated by adding to the assay plate TBIS-1 (10 μL, 4.5 μM, Anaspec) in the same buffer.
Finally, the fluorescence is read on the Envision (Perkin Elmer) after an incubation of 60 min at room temperature (Excitation 485 nm, emission 535).

human ADAMTS-5 [2] = molecular target: T2, human ADAMTS-5 (Homo sapiens (Human), UniProt Q9UNA0); test: hADAMTS-5 TBIS-1 cleavage assay, Protocol 2; type: biochemical; conditions: 45 min at 37° C., read-out: ADAMTS5 potency IC50
human ADAMTS6 = human ADAMTS6 (Homo sapiens (Human), UniProt Q9UKP5); test: hADAMTS-6 fluorescent based protease assay (520 MMP FRET substrate XII); type: biochemical; conditions: 37° C. for 2 h; read-out: hADAMTS-6 potency IC50
Summary of the method: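 ADAMTS6 (0.73 nM final) in 25 mM Tris pH 8.0, 0.05% CHAPS, 2.5 mM CaCl2 with compound dilution series (top 20 μM, 1/5 steps). Reaction started with 520 MMP FRET Substrate XII, incubated 2 h at 37 °C. Substrate cleavage read by fluorescence ex485/em530; IC50 determined.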

human TACE = human TACE (Homo sapiens (Human), UniProt P78536); test: biochemical
Method: Finally, the fluorescence is read on the Envision (Perkin Elmer) after an incubation of 75 min at room temperature (Excitation 485 nm, Emission 530).

rnADAMTS-5 (1-564-6H) = rnADAMTS-5 (1-564-6H) (Rattus norvegicus (Rat), UniProt Q6TY19); test: Rat ADAMTS-5 TBIS-1 cleavage assay; type: biochemical; conditions: 120 min at 37° C.; read-out: Rat ADAMTS-5 potency IC50
human ADAMTS4 [3] = molecular target: T1, human ADAMTS4; test: hADAMTS-4 TBIS-1 cleavage assay, Protocol 2; type: biochemical; conditions: Protocol 2; 180 min at 37° C.; read-out: ADAMTS4 potency IC50
human ADAMTS-5 [4] = molecular target: T2, human ADAMTS-5; test: hADAMTS-5 TBIS-1 cleavage assay, Protocol 3; type: biochemical; conditions: 90 min at 37° C., read-out: hADAMTS-5 potency IC50
Method: as §2
Finally, the fluorescence is read on the Envision (Perkin Elmer) after an incubation of 90 min at 37° C. (Excitation 485 nm, emission 530).

human MMP13 [5] = molecular target: T3, human MMP13 (Homo sapiens (Human), UniProt P45452); test: hMMP13 assay, Protocol 1 (390 MMP FRET Substrate I, Chemicon enzyme); type: biochemical; conditions: Protocol 1, human MMP13 (Chemicon), read-out: hMMP-13 potency IC50
Method: (§1) Human MMP13 is preactivated by incubated the enzyme in the same buffer complemented with 1 mM freshly prepared p-Aminophenylmercuric acetate (AMPA) for 1 h at 37° C.

human MMP13 [6] = molecular target: T3, human MMP13; test: hMMP13 assay, Protocol 2 (390 MMP FRET Substrate I, Enzo enzyme); type: biochemical; conditions: Protocol 2, human MMP13 (Enzo Life Sciences), read-out: hMMP-13 potency IC50
Method: as §1

human MMP14 = human MMP14 (Homo sapiens (Human), UniProt P50281); test: hMMP14 assay (390 MMP FRET Substrate I); type: biochemical; conditions: human MMP14 (Biomol), read-out: hMMP-14 potency IC50
Method: The basis for the assay is the cleavage of the substrate 390 MMP FRET Substrate I (Anaspec Cat #AS-27076) by human MMP14 (Biomol, Cat #SE-259).
The reaction is initiated by adding to the assay plate 390 MMP FRET Substrate I (10 μL, 2.5 μM) in the same buffer.
Finally, the fluorescence is read on the Envision (Perkin Elmer) after an incubation of 60 min at room temperature (Excitation 485 nm, Emission 530).

T2 sequence (Q9UNA0 262-930): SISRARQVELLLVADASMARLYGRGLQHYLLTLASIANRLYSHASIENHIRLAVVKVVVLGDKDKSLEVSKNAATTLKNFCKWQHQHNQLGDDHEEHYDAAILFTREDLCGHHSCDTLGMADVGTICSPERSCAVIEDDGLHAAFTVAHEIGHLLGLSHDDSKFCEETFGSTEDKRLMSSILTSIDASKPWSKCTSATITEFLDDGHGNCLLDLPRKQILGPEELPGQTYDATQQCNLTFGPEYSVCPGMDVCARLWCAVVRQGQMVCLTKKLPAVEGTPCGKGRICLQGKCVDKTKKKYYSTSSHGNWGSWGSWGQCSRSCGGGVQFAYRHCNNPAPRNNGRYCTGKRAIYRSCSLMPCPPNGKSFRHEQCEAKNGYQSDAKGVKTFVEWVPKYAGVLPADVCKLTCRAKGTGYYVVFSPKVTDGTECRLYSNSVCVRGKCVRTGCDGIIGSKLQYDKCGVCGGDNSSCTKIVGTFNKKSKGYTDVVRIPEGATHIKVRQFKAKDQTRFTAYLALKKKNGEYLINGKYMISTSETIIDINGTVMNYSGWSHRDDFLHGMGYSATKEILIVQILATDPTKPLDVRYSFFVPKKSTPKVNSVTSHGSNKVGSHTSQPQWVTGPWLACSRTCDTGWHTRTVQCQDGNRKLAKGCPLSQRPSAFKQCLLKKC
T1 sequence (O75173 213-837): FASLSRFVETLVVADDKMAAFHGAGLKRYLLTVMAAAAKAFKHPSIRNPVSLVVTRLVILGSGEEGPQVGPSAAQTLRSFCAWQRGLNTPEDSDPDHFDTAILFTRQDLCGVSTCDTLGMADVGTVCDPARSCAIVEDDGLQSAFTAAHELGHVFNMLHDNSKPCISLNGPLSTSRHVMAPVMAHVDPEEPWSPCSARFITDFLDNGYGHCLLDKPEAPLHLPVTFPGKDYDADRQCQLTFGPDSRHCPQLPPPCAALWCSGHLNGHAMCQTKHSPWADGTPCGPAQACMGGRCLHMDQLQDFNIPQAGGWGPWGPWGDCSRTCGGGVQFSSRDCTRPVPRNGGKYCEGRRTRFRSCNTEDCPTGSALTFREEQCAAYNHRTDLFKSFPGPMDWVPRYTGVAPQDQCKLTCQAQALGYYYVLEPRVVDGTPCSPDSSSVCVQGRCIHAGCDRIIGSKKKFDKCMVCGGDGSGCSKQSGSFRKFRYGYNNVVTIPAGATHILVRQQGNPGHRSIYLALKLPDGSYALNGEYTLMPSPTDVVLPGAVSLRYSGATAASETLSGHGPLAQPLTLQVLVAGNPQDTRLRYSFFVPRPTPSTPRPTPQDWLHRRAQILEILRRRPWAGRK
rnADAMTS-5 (1-564-6H), sequence (Q6TY19 entry or part of it): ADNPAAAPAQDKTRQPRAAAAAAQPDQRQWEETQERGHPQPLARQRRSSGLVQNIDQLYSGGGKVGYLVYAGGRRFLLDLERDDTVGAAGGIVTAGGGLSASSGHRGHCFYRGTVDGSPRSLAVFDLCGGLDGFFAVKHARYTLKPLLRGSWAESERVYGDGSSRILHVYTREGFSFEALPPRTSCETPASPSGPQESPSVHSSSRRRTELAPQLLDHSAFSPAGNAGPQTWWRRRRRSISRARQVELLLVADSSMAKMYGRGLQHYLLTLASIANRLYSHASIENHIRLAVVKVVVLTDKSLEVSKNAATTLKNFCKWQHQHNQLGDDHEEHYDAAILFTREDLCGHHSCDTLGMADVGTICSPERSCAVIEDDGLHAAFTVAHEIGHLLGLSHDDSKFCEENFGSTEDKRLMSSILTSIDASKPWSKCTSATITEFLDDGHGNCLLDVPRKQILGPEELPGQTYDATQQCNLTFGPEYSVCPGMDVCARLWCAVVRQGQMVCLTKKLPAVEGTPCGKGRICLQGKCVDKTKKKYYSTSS
human TACE, sequence (P78536 215-671): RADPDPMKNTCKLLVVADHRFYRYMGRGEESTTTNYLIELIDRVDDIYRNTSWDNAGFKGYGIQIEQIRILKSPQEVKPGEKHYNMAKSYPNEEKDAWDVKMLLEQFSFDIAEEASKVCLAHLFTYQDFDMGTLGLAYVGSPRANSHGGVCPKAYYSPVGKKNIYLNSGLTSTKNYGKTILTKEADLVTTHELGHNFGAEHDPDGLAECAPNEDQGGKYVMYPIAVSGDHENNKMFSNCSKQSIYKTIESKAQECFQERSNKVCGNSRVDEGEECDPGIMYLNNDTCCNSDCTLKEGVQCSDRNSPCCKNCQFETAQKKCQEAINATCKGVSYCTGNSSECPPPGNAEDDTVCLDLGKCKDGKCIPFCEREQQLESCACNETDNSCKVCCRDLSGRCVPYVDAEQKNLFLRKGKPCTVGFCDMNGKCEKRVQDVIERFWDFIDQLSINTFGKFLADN
human ADAMTS6, sequence (Q9UKP5 other isoform, or with tags, fused parts or gaps): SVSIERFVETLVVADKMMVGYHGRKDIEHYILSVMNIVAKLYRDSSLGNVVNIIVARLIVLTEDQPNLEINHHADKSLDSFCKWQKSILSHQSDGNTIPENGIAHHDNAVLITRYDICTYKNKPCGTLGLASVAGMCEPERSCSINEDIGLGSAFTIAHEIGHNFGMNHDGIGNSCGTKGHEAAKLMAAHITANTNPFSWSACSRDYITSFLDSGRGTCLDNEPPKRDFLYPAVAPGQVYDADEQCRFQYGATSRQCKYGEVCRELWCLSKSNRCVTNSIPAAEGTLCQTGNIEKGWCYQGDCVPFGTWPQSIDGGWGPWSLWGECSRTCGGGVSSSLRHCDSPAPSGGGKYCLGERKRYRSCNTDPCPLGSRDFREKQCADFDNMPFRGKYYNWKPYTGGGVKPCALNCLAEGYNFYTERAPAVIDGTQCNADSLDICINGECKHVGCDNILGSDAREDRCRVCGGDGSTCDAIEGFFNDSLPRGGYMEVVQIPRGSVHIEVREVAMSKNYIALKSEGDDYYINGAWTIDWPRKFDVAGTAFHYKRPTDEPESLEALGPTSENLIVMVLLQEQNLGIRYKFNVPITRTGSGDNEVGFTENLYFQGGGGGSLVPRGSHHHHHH

Row | pIC50 (human ADAMTS4 [1]) | pIC50 (human ADAMTS-5 [2]) | pIC50 (human ADAMTS6) | pIC50 (human TACE) | pIC50 (rnADAMTS-5 (1-564-6H)) | pIC50 (human ADAMTS4 [3]) | pIC50 (human ADAMTS-5 [4]) | pIC50 (human MMP13 [5]) | pIC50 (human MMP13 [6]) | pIC50 (human MMP14) | SMILES
1 | < 7.00 | < 7.00 | < 7.00 | < 7.00 |  |  |  |  |  |  | COc1cccc(N2CCN(C(=O)CCC3(C)NC(=O)NC3=O)CC2)c1 (stereo not shown) [Cpd 1, 5-[3-[4-(3-methoxyphenyl)piperazin-1-yl]-3-oxo-propyl]-5-methyl-imidazolidine-2,4-dione]
2 | 7.30 to 7.60 | < 7.00 | < 7.00 | < 7.00 | < 7.00 |  |  |  |  |  | COc1cccc(N2CCN(C(=O)CCC3(C4CC4)NC(=O)NC3=O)CC2)c1 (stereo not shown) [Cpd 2, 5-cyclopropyl-5-[3-[4-(3-methoxyphenyl)piperazin-1-yl]-3-oxo-propyl]imidazolidine-2,4-dione]
3 |  | < 7.00 | < 7.00 | < 7.00 | < 7.00 | < 7.00 | < 7.00 | < 7.00 |  |  | COc1cc(N2CCN(C(=O)CCC3(C4CC4)NC(=O)NC3=O)CC2)ccc1F (stereo not shown) [Cpd 17, 5-cyclopropyl-5-[3-[4-(4-fluoro-3-methoxy-phenyl)piperazin-1-yl]-3-oxo-propyl]imidazolidine-2,4-dione]
4 |  | 7.00 to 7.30 | 7.60 to 12.00 | < 7.00 | < 7.00 | < 7.00 | 7.00 to 7.30 | < 7.00 | < 7.00 | < 7.00 | COc1cc(N2CCN(C(=O)CCC3(C4CC4)NC(=O)NC3=O)CC2)cc(F)c1F (stereo not shown) [Cpd 18, 5-cyclopropyl-5-[3-[4-(3,4-difluoro-5-methoxy-phenyl)piperazin-1-yl]-3-oxo-propyl]imidazolidine-2,4-dione]

Source: US10829478B2, “5-[3-[piperazin-1-yl]-3-oxo-propyl]-imidazolidine-2,4-dione derivatives as ADAMTS 4 and 5 inhibitors for treating e.g. osteoarthritis” (Galapagos NV, priority 2016, dated 2020)
